Molecular target: T1, STING (Homo sapiens, UniProt Q86WV6, G230A/H232R/R293Q/R71H)
T1 construct: host or cells: THP1-Dual KO-IFNAR2 cells
Assay: STING reporter assay in THP1-Dual KO-IFNAR2 cells (luciferase reporter, 2′3′cGAMP stimulation)
Assay type: cell-based
Details: 2′3′cGAMP 15 μM, 24 h, luciferase reporter activity, GeoMean, read-out: Pharmaron, THP1_IFNAR2 STING 24 h Luci Normalized: GeoMean EC50
Procedure: STING pathway activation by the compounds described herein was measured using THP1-Dual™ cells (KO-IFNAR2).
THP1-Dual™ KO-IFNAR2 Cells (obtained from invivogen) were maintained in RPMI, 10% FCS, 5 ml P/S, 2 mM L-glut, 10 mM Hepes, and 1 mM sodium pyruvate. Compounds were spotted in empty 384 well tissue culture plates (Greiner 781182) by Echo for a final concentration of 0.0017-100 μM. Cells were plated into the TC plates at 40 μL per well, 2×10E6 cells/mL. For activation with STING ligand, 2′3′cGAMP (MW 718.38, obtained from Invivogen), was prepared in Optimem media.
The following solutions were prepared for each 1×384 plate: • Solution A: 2 mL Optimem with one of the following stimuli: • […] of 10 mM 2′3′cGAMP→150 μM stock • Solution B: 2 mL Optimem with 60 μL Lipofectamine 2000→Incubate 5 min at RT • 2 mL of solution A and 2 ml Solution B was mixed and incubated for 20 min at room temperature (RT). 20 μL of transfection solution (A+B) was added on top of the plated cells, with a final 2′3′cGAMP concentration of 15 μM. The plates were then centrifuged immediately at 340 g for 1 minute, after which they were incubated at 37° C., 5% CO2, >98% humidity for 24 h. Luciferase reporter activity was then measured. EC50 values were calculated by using standard methods known in the art.
Luciferase reporter assay: 10 μL of supernatant from the assay was transferred to white 384-plate with flat bottom and squared wells. One pouch of QUANTI-Luc™ Plus was dissolved in 25 mL of water. 100 μL of QLC Stabilizer per 25 mL of QUANTI-Luc™ Plus solution was added. 50 μL of QUANTI-Luc™ Plus/QLC solution per well was then added. Luminescence was measured on a Platereader (e.g., Spectramax I3X (Molecular Devices GF3637001)).
Luciferase reporter activity was then measured. EC50 values were calculated by using standard methods known in the art.

T1 sequence (Q86WV6 whole entry R71H/G230A/H232R/R293Q): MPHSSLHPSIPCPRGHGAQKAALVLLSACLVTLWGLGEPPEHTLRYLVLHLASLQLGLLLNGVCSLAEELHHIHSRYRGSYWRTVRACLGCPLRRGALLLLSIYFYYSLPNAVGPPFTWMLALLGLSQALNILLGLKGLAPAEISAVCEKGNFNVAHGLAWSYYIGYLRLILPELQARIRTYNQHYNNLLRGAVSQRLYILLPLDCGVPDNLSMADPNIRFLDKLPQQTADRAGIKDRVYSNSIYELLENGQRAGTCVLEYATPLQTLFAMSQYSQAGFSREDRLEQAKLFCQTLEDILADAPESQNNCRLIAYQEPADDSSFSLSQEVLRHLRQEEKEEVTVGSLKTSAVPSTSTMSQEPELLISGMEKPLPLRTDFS

`O=S(=O)(Nc1c[nH]c2ccc(CCOc3ccc(C(F)(F)F)cc3)cc12)c1cccc(Cl)n1` [Compound 104, 6-chloro-N-(5-(2-(4-(trifluoromethyl)phenoxy)ethyl)-1H-indol-3-yl)pyridine-2-sulfonamide] and `Cn1ccc(S(=O)(=O)Nc2c[nH]c3ccc(CCOc4ccc(C(F)(F)F)cc4)cc23)n1` [Compound 107, 1-methyl-N-(5-(2-(4-(trifluoromethyl)phenoxy)ethyl)-1H-indol-3-yl)-1H-pyrazole-3-sulfonamide] fall in the same range of EC50: 200 to 1000 nM for the first, 200 to 1000 nM for the second.

`O=S(=O)(Nc1c[nH]c2ccc(CCOc3ccc(C(F)(F)F)cc3)cc12)C1CCOCC1` [Compound 105, N-(5-(2-(4-(trifluoromethyl)phenoxy)ethyl)-1H-indol-3-yl)tetrahydro-2H-pyran-4-sulfonamide] and `O=S(=O)(Nc1c[nH]c2ccc(OCCc3ccc(C(F)(F)F)cc3)cc12)C1CCOCC1` [Compound 115, N-(5-(4-(trifluoromethyl)phenethoxy)-1H-indol-3-yl)tetrahydro-2H-pyran-4-sulfonamide] fall in the same range of EC50: 200 to 1000 nM for the first, 200 to 1000 nM for the second.

First: O=S(=O)(CCC(F)(F)F)Nc1c[nH]c2ccc(CCOc3ccc(C(F)(F)F)cc3)cc12 [Compound 106, 3,3,3-trifluoro-N-(5-(2-(4-(trifluoromethyl)phenoxy)ethyl)-1H-indol-3-yl)propane-1-sulfonamide]
Second: O=S(=O)(CCC(F)(F)F)Nc1c[nH]c2ccc(OCCc3ccc(C(F)(F)F)cc3)cc12 [Compound 120, 3,3,3-trifluoro-N-(5-(4-(trifluoromethyl)phenethoxy)-1H-indol-3-yl)propane-1-sulfonamide]
The EC50 of the first is lower: 40 to 200 nM for the first, 200 to 1000 nM for the second. The first is the more potent here.

`O=S(=O)(CC1CCOCC1)Nc1c[nH]c2ccc(CCOc3ccc(C(F)(F)F)cc3)cc12` [Compound 108, 1-(tetrahydro-2H-pyran-4-yl)-N-(5-(2-(4-(trifluoromethyl)phenoxy)ethyl)-1H-indol-3-yl)methanesulfonamide] and `O=S(=O)(CC1CC1)Nc1c[nH]c2ccc(CCOc3ccc(C(F)(F)F)cc3)cc12` [Compound 126, 1-cyclopropyl-N-(5-(2-(4-(trifluoromethyl)phenoxy)ethyl)-1H-indol-3-yl)methanesulfonamide] fall in the same range of EC50: 200 to 1000 nM for the first, 200 to 1000 nM for the second.

`COCCS(=O)(=O)Nc1c[nH]c2ccc(CCOc3ccc(C(F)(F)F)cc3)cc12` [Compound 109, 2-methoxy-N-(5-(2-(4-(trifluoromethyl)phenoxy)ethyl)-1H-indol-3-yl)ethane-1-sulfonamide] and `COCCS(=O)(=O)Nc1c[nH]c2ccc(OCCc3ccc(C(F)(F)F)cc3)cc12` [Compound 123, 2-methoxy-N-(5-(4-(trifluoromethyl)phenethoxy)-1H-indol-3-yl)ethane-1-sulfonamide] fall in the same range of EC50: 200 to 1000 nM for the first, 200 to 1000 nM for the second.

First: Cn1cc(S(=O)(=O)Nc2c[nH]c3ccc(OCCc4ccc(C(F)(F)F)cc4)cc23)cn1 [Compound 110, 1-methyl-N-(5-(4-(trifluoromethyl)phenethoxy)-1H-indol-3-yl)-1H-pyrazole-4-sulfonamide]
Second: Cn1ccc(S(=O)(=O)Nc2c[nH]c3ccc(OCCc4ccc(C(F)(F)F)cc4)cc23)n1 [Compound 116, 1-methyl-N-(5-(4-(trifluoromethyl)phenethoxy)-1H-indol-3-yl)-1H-pyrazole-3-sulfonamide]
The EC50 of the first is lower: 40 to 200 nM for the first, 200 to 1000 nM for the second.

`Cn1cnc(S(=O)(=O)Nc2c[nH]c3ccc(CCOc4ccc(C(F)(F)F)cc4)cc23)c1` [Compound 111, 1-methyl-N-(5-(2-(4-(trifluoromethyl)phenoxy)ethyl)-1H-indol-3-yl)-1H-imidazole-4-sulfonamide] and `Cn1cnc(S(=O)(=O)Nc2c[nH]c3ccc(OCCc4ccc(C(F)(F)F)cc4)cc23)c1` [Compound 118, 1-methyl-N-(5-(4-(trifluoromethyl)phenethoxy)-1H-indol-3-yl)-1H-imidazole-4-sulfonamide] fall in the same range of EC50: 200 to 1000 nM for the first, 200 to 1000 nM for the second.

`O=S(=O)(CCC1CC1)Nc1c[nH]c2ccc(CCOc3ccc(C(F)(F)F)cc3)cc12` [Compound 112, 2-cyclopropyl-N-(5-(2-(4-(trifluoromethyl)phenoxy)ethyl)-1H-indol-3-yl)ethane-1-sulfonamide] and `O=S(=O)(CC1CCC1)Nc1c[nH]c2ccc(CCOc3ccc(C(F)(F)F)cc3)cc12` [Compound 114, 1-cyclobutyl-N-(5-(2-(4-(trifluoromethyl)phenoxy)ethyl)-1H-indol-3-yl)methanesulfonamide] fall in the same range of EC50: 200 to 1000 nM for the first, 200 to 1000 nM for the second.

`CCS(=O)(=O)Nc1c[nH]c2ccc(CCOc3ccc(C(F)(F)F)cc3)cc12` [Compound 113, N-(5-(2-(4-(trifluoromethyl)phenoxy)ethyl)-1H-indol-3-yl)ethanesulfonamide] and `CCS(=O)(=O)Nc1c[nH]c2ccc(OCCc3ccc(C(F)(F)F)cc3)cc12` [Compound 121, N-(5-(4-(trifluoromethyl)phenethoxy)-1H-indol-3-yl)ethanesulfonamide] fall in the same range of EC50: 200 to 1000 nM for the first, 200 to 1000 nM for the second.

`O=S(=O)(CC1CCCO1)Nc1c[nH]c2ccc(OCCc3ccc(C(F)(F)F)cc3)cc12` (centres unmarked) [Compound 117, 1-(tetrahydrofuran-2-yl)-N-(5-(4-(trifluoromethyl)phenethoxy)-1H-indol-3-yl)methanesulfonamide] and `O=S(=O)(CC1CCCO1)Nc1c[nH]c2ccc(CCOc3ccc(C(F)(F)F)cc3)cc12` (centres unmarked) [Compound 125, 1-(tetrahydrofuran-2-yl)-N-(5-(2-(4-(trifluoromethyl)phenoxy)ethyl)-1H-indol-3-yl)methanesulfonamide] fall in the same range of EC50: 200 to 1000 nM for the first, 200 to 1000 nM for the second.

`O=S(=O)(CC1CCC1)Nc1c[nH]c2ccc(OCCc3ccc(C(F)(F)F)cc3)cc12` [Compound 119, 1-cyclobutyl-N-(5-(4-(trifluoromethyl)phenethoxy)-1H-indol-3-yl)methanesulfonamide] and `O=S(=O)(CC1CC1)Nc1c[nH]c2ccc(OCCc3ccc(C(F)(F)F)cc3)cc12` [Compound 124, 1-cyclopropyl-N-(5-(4-(trifluoromethyl)phenethoxy)-1H-indol-3-yl)methanesulfonamide] fall in the same range of EC50: 40 to 200 nM for the first, 40 to 200 nM for the second.

Compound `O=S(=O)(Cc1ccccc1)Nc1c[nH]c2ccc(OCCc3ccc(C(F)(F)F)cc3)cc12` [Compound 122, 1-phenyl-N-(5-(4-(trifluoromethyl)phenethoxy)-1H-indol-3-yl)methanesulfonamide] has an EC50 of 40 to 200 nM.

Reference: patent publication US20250084071A1, “COMPOUNDS AND COMPOSITIONS FOR TREATING CONDITIONS ASSOCIATED WITH STING ACTIVITY” (NOVARTIS PHARMA AG, priority 2022, published 2025)
